This note sets out measurements from PubChem BioAssay (NCI).

Some test systems named below: UACC-257 melanoma; HT29 colon; TK-10 renal; NCI-H23 lung; BT-549 breast; EKVX NSCLC; HL-60(TB) leukemia; OVCAR-8 ovarian; CAKI-1 renal; SNB-75 CNS; SK-MEL-2 melanoma; KM12 colon; HS 578T breast; MOLT-4 leukemia; RPMI-8226 leukemia; MALME-3M melanoma; DU-145 prostate; RXF 393 renal; NCI-H460 lung.
Test in all cases: NCI-60 cell line screen, 48 h

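A five-concentration, 48-hour dose response in 96-well plates underlies each endpoint, interpolated linearly between surrounding concentrations. At the TGI there is no net growth.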

`COC(=O)c1ccc(NCC2=CC(=O)C=CC2=O)cc1`: the TGI in the assay on UACC-257 melanoma is 25.7 µM; in the assay with HT29 colon it was 38.8 µM; in the assay on TK-10 renal, 22.7 µM; in the assay with NCI-H23 lung, 29.8 µM; in the assay with BT-549 breast, 27 µM; in the assay on EKVX NSCLC it was 28.2 µM. The TGI in the assay on HL-60(TB) leukemia was 5.5 µM; in the assay with OVCAR-8 ovarian, 39.9 µM; with CAKI-1 renal it was 7.68 µM; in the assay with SNB-75 CNS, 30.3 µM; in the assay with SK-MEL-2 melanoma, 37.4 µM; with KM12 colon it was 28.6 µM. Also, the TGI was more than 100 µM with HS 578T breast; 9.58 µM in the assay on MOLT-4 leukemia; 7.22 µM in the assay with RPMI-8226 leukemia; 13.9 µM in the assay with MALME-3M melanoma; 28.8 µM in the assay with DU-145 prostate.

Consider `O=C(c1cccs1)N(Cc1cccnc1)C(=S)N(Cc1cccnc1)C(=O)c1cccs1`, for which the TGI in the assay on UACC-257 melanoma, in the assay on HT29 colon, with TK-10 renal, in the assay with NCI-H23 lung, with BT-549 breast and in the assay with EKVX NSCLC was more than 100 µM throughout. Moreover, the TGI with RXF 393 renal, in the assay on HL-60(TB) leukemia, in the assay on OVCAR-8 ovarian, in the assay with CAKI-1 renal, in the assay with SNB-75 CNS and in the assay on SK-MEL-2 melanoma was more than 100 µM throughout. The TGI in the assay on KM12 colon, in the assay with HS 578T breast, with MOLT-4 leukemia, with MALME-3M melanoma, with NCI-H460 lung and with DU-145 prostate was more than 100 µM throughout.

With `CCOC(=O)c1ccc(Nc2nc3cc(C(F)(F)F)ccc3nc2C(=O)OCC)cc1`, the TGI in the assay on UACC-257 melanoma was more than 100 µM; in the assay with HT29 colon, more than 100 µM; in the assay on TK-10 renal, 63.1 µM; with NCI-H23 lung, more than 100 µM; with BT-549 breast, more than 100 µM; in the assay on EKVX NSCLC, more than 100 µM. Also, the TGI is more than 100 µM in the assay with RXF 393 renal; more than 100 µM in the assay on HL-60(TB) leukemia; more than 100 µM in the assay on OVCAR-8 ovarian; 49.6 µM in the assay with CAKI-1 renal; more than 100 µM with SNB-75 CNS; more than 100 µM in the assay on KM12 colon. For the same compound, the TGI with HS 578T breast, in the assay on MOLT-4 leukemia, in the assay with RPMI-8226 leukemia, with NCI-H460 lung and in the assay with DU-145 prostate was more than 100 µM in each case.

Turning to `O=C(c1ccccc1)C1C[C@H]2CO[C@H](c3ccccc3)N2C1=O` (stereo partly drawn), the TGI in the assay on UACC-257 melanoma, with HT29 colon, with TK-10 renal, in the assay with NCI-H23 lung, in the assay with BT-549 breast and in the assay with EKVX NSCLC was more than 100 µM throughout. The TGI in the assay on RXF 393 renal, in the assay on OVCAR-8 ovarian, in the assay with CAKI-1 renal, with SNB-75 CNS, in the assay with SK-MEL-2 melanoma and in the assay with KM12 colon was more than 100 µM each time. For the same compound, the TGI in the assay on HS 578T breast, in the assay with MOLT-4 leukemia, in the assay on RPMI-8226 leukemia, with MALME-3M melanoma, in the assay with NCI-H460 lung and with DU-145 prostate was more than 100 µM throughout.

On to `C#CCCOC(=O)c1ccccc1OC(C)=O`, for which the TGI in the assay on UACC-257 melanoma, with TK-10 renal, in the assay on NCI-H23 lung, in the assay on BT-549 breast, in the assay with EKVX NSCLC and with RXF 393 renal was more than 100 µM throughout. For the same compound, the TGI in the assay on OVCAR-8 ovarian, in the assay with CAKI-1 renal, with SNB-75 CNS, in the assay on SK-MEL-2 melanoma, in the assay on KM12 colon and with HS 578T breast was more than 100 µM each time. The TGI with MOLT-4 leukemia, in the assay on RPMI-8226 leukemia, in the assay on NCI-H460 lung and with DU-145 prostate was more than 100 µM in each case.

With `CCc1ccccc1NC(=O)C(=O)CC(=O)c1sc(Nc2ccccc2Cl)nc1C`, the TGI in the assay on UACC-257 melanoma, in the assay on HT29 colon, in the assay on TK-10 renal, with NCI-H23 lung, in the assay on BT-549 breast and in the assay with EKVX NSCLC was more than 100 µM in each case. Also, the TGI in the assay with RXF 393 renal is 74.2 µM; in the assay with HL-60(TB) leukemia, more than 100 µM; in the assay with OVCAR-8 ovarian, more than 100 µM; with CAKI-1 renal it was more than 100 µM; in the assay on SK-MEL-2 melanoma it was 56.1 µM; with KM12 colon, more than 100 µM. Besides, the TGI in the assay on HS 578T breast is more than 100 µM; in the assay with MOLT-4 leukemia it was 49.8 µM; in the assay on RPMI-8226 leukemia, 65.6 µM; in the assay on NCI-H460 lung, 46.1 µM; in the assay on DU-145 prostate, more than 100 µM.

As to `O=[N+]([O-])c1ccc(C(=Nc2ccccc2)SSC(=Nc2ccccc2)c2ccc([N+](=O)[O-])o2)o1`, the TGI with UACC-257 melanoma was more than 21.9 µM; in the assay with HT29 colon, 4.1 µM; in the assay with TK-10 renal it was 13.9 µM; in the assay on NCI-H23 lung it was 3.38 µM; in the assay with BT-549 breast, 3.69 µM; with EKVX NSCLC, 3.48 µM. The TGI in the assay with RXF 393 renal was found to be 4.55 µM; with HL-60(TB) leukemia, 8.61 µM; with OVCAR-8 ovarian, 3.75 µM; with CAKI-1 renal, 4.67 µM; in the assay with SNB-75 CNS it was 3.45 µM; in the assay with SK-MEL-2 melanoma it was 6.15 µM. Besides, the TGI is 4.15 µM with KM12 colon; 5.34 µM in the assay with HS 578T breast; more than 24 µM in the assay on MOLT-4 leukemia; 5.09 µM with MALME-3M melanoma; more than 25.5 µM in the assay on NCI-H460 lung; 3.6 µM with DU-145 prostate.

As for `O=Nc1c(NO)ccc2nn(-c3ccccc3)nc12`, the TGI in the assay on UACC-257 melanoma is 11.7 µM; in the assay with HT29 colon, more than 100 µM; in the assay on TK-10 renal, more than 100 µM; in the assay with BT-549 breast it was more than 100 µM; in the assay on EKVX NSCLC, more than 100 µM; with HL-60(TB) leukemia it was more than 100 µM. Moreover, the TGI is more than 100 µM with OVCAR-8 ovarian; 71.3 µM in the assay with CAKI-1 renal; more than 100 µM in the assay with SNB-75 CNS; more than 100 µM in the assay on SK-MEL-2 melanoma; more than 100 µM in the assay on KM12 colon; more than 100 µM with HS 578T breast. In addition, the TGI in the assay on MOLT-4 leukemia is 74.5 µM; with RPMI-8226 leukemia it was more than 100 µM; in the assay on MALME-3M melanoma it was more than 100 µM; in the assay with NCI-H460 lung, more than 100 µM; in the assay on DU-145 prostate, more than 100 µM.
